According to ChEMBL document CHEMBL1201862, “PubChem BioAssay data set” (2004):
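Compound exposure: 48 hours, 5 concentrations, 96-well plates. Here, GI50 denotes the concentration required for 50% inhibition of growth.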 Calls of active or inactive are those of the source. Rule as the data show it: active = GI50 up to about 1.1 µM and inactive = higher.

What was measured:
Assay in all cases: NCI tumour cell line growth inhibition, 48 h
786-0 = system: 786-0
K562 = system: K562
SK-OV-3 = system: SK-OV-3
SF-268 = system: SF-268
SF-295 = system: SF-295
UACC-62 = system: UACC-62
UACC-257 = system: UACC-257
T47D = system: T47D
Hs-578T = system: Hs-578T
CAKI-1 = system: CAKI-1
MOLT-4 = system: MOLT-4
MDA-MB-231 = system: MDA-MB-231
SF-539 = system: SF-539
RPMI-8226 = system: RPMI-8226
HCT-15 = system: HCT-15
UO-31 = system: UO-31
ACHN = system: ACHN
RXF 393 = system: RXF 393
HOP-92 = system: HOP-92
MDA-MB-435 = system: MDA-MB-435

`Cc1cc(Cl)nc2ccc(Cc3ccc4nc(Cl)cc(C)c4c3)cc12` was tested, and the GI50 (786-0) was 12.2 µM (inactive), the GI50 (K562) was > 100 µM (inactive) and the GI50 (SK-OV-3) was 14 µM (inactive). For the same compound, the GI50 (SF-268) was 43.2 µM (inactive), the GI50 (SF-295) was 22 µM (inactive) and the GI50 (UACC-62) was 51.6 µM (inactive). The GI50 (UACC-257) was 27 µM (inactive), the GI50 (T47D) was 6.25 µM (inactive) and the GI50 (Hs-578T) was 36.3 µM (inactive). The GI50 (CAKI-1) was 39.8 µM (inactive), the GI50 (MOLT-4) was > 100 µM (inactive) and the GI50 (MDA-MB-231) was 17.1 µM (inactive). For the same compound, the GI50 (SF-539) was 12.6 µM (inactive), the GI50 (RPMI-8226) was 36.6 µM (inactive) and the GI50 (HCT-15) was 49.3 µM. For the same compound, the GI50 (UO-31) was 37.6 µM (inactive), the GI50 (ACHN) was 16 µM (inactive) and the GI50 (RXF 393) was 11 µM (inactive). For the same compound, the GI50 (HOP-92) was 43.1 µM (inactive) and the GI50 (MDA-MB-435) was 65.2 µM (inactive).

With `COc1cccc2c1C(=O)C(=O)c1c-2oc(=O)c2cc(C)cc(OC)c12` the GI50 (786-0) was 26.2 µM (inactive), the GI50 (K562) was 22.3 µM (inactive) and the GI50 (SK-OV-3) was 58.5 µM (inactive). For the same compound, the GI50 (SF-268) was 17.3 µM (inactive), the GI50 (SF-295) was 45.3 µM (inactive) and the GI50 (UACC-62) was 31 µM (inactive). The GI50 (UACC-257) was 14.9 µM (inactive), the GI50 (T47D) was 29.9 µM (inactive) and the GI50 (Hs-578T) was 19.6 µM (inactive). The GI50 (CAKI-1) was 67.5 µM (inactive), the GI50 (MOLT-4) was 23 µM (inactive) and the GI50 (MDA-MB-231) was 21.3 µM (inactive). For the same compound, the GI50 (SF-539) was 63 µM (inactive), the GI50 (RPMI-8226) was 20.6 µM (inactive) and the GI50 (HCT-15) was 13.4 µM. For the same compound, the GI50 (UO-31) was 35 µM (inactive), the GI50 (ACHN) was > 75 µM (inactive) and the GI50 (RXF 393) was 19.1 µM (inactive). The GI50 (HOP-92) was 59.2 µM (inactive) and the GI50 (MDA-MB-435) was 14.2 µM (inactive).

`O=CCCCCCOCc1ccccc1` was tested, and the GI50 (786-0) was 23.8 µM (inactive), the GI50 (K562) was 9.98 µM (inactive) and the GI50 (SK-OV-3) was > 100 µM (inactive). The GI50 (SF-268) was > 100 µM (inactive), the GI50 (SF-295) was 30.6 µM (inactive) and the GI50 (UACC-62) was > 58.1 µM (inactive). The GI50 (UACC-257) was > 60.8 µM (inactive), the GI50 (T47D) was > 100 µM (inactive) and the GI50 (Hs-578T) was > 100 µM (inactive). The GI50 (CAKI-1) was > 45.8 µM (inactive), the GI50 (MOLT-4) was 16.9 µM (inactive) and the GI50 (MDA-MB-231) was > 87.1 µM (inactive). The GI50 (SF-539) was > 100 µM (inactive), the GI50 (RPMI-8226) was 25.1 µM (inactive) and the GI50 (HCT-15) was 37.4 µM. The GI50 (UO-31) was > 87.1 µM (inactive), the GI50 (ACHN) was 36.9 µM (inactive) and the GI50 (RXF 393) was > 100 µM (inactive). The GI50 (HOP-92) was > 100 µM (inactive) and the GI50 (MDA-MB-435) was > 100 µM (inactive).

In the case of `CC1OC(OC2C(O[C@H]3CC[C@@]4(C)C(=CC[C@H]5[C@@H]6C[C@@H]7O[C@]8(CC[C@@H](C)CO8)[C@@H](C)[C@@H]7[C@@]6(C)CC[C@@H]54)C3)OC(CO)C(O)C2OC2OC(CO)C(O)C(O)C2O)C(O)C(O)C1O` (some centres undefined), the GI50 (786-0) is reported as 1.77 µM (inactive), the GI50 (K562) is reported as 14.4 µM (inactive) and the GI50 (SK-OV-3) is reported as 1.8 µM (inactive). For the same compound, the GI50 (SF-268) was 1.9 µM (inactive), the GI50 (SF-295) was 2.14 µM (inactive) and the GI50 (UACC-62) was 2.33 µM (inactive). The GI50 (UACC-257) was 1.86 µM (inactive), the GI50 (T47D) was 2.31 µM (inactive) and the GI50 (Hs-578T) was 1.73 µM (inactive). The GI50 (CAKI-1) was 3.5 µM (inactive), the GI50 (MDA-MB-231) was 1.47 µM (inactive) and the GI50 (SF-539) was 2.15 µM (inactive). The GI50 (RPMI-8226) was 2.54 µM (inactive), the GI50 (HCT-15) was 1.95 µM and the GI50 (UO-31) was 1.94 µM (inactive). The GI50 (ACHN) was 1.8 µM (inactive), the GI50 (RXF 393) was 2.17 µM (inactive) and the GI50 (HOP-92) was 1.79 µM (inactive). The GI50 (MDA-MB-435) was 1.81 µM (inactive).

In the case of `CCCCn1c(C)c(C(=O)OCC)s/c1=N/Nc1nc2ccccc2nc1-c1ccccc1`, the GI50 (786-0) is reported as 49.1 µM (inactive), the GI50 (K562) is reported as > 100 µM (inactive) and the GI50 (SK-OV-3) is reported as 53.3 µM (inactive). The GI50 (SF-295) was 43.3 µM (inactive), the GI50 (UACC-62) was > 100 µM (inactive) and the GI50 (UACC-257) was > 100 µM (inactive). For the same compound, the GI50 (T47D) was 52.1 µM (inactive), the GI50 (Hs-578T) was 26.2 µM (inactive) and the GI50 (CAKI-1) was > 100 µM (inactive). The GI50 (MOLT-4) was > 100 µM (inactive), the GI50 (MDA-MB-231) was 39.3 µM (inactive) and the GI50 (SF-539) was > 100 µM (inactive). The GI50 (RPMI-8226) was 86.3 µM (inactive), the GI50 (HCT-15) was over 100 µM and the GI50 (ACHN) was 78.3 µM (inactive). For the same compound, the GI50 (RXF 393) was > 100 µM (inactive), the GI50 (HOP-92) was 44 µM (inactive) and the GI50 (MDA-MB-435) was > 100 µM (inactive).

`O=C1c2ccccc2C(=O)N1c1ccc(OCCN2CCCCC2)cc1` was tested, and the GI50 (786-0) was > 100 µM (inactive), the GI50 (K562) was > 100 µM (inactive) and the GI50 (SK-OV-3) was > 100 µM (inactive). For the same compound, the GI50 (SF-268) was > 100 µM (inactive), the GI50 (SF-295) was > 100 µM (inactive) and the GI50 (UACC-62) was > 100 µM (inactive). The GI50 (UACC-257) was > 100 µM (inactive), the GI50 (T47D) was > 100 µM (inactive) and the GI50 (Hs-578T) was > 100 µM (inactive). The GI50 (CAKI-1) was > 100 µM (inactive), the GI50 (MOLT-4) was > 100 µM (inactive) and the GI50 (MDA-MB-231) was > 100 µM (inactive). The GI50 (SF-539) was > 100 µM (inactive), the GI50 (RPMI-8226) was > 100 µM (inactive) and the GI50 (HCT-15) was over 100 µM. The GI50 (ACHN) was > 100 µM (inactive), the GI50 (RXF 393) was > 100 µM (inactive) and the GI50 (HOP-92) was > 100 µM (inactive). For the same compound, the GI50 (MDA-MB-435) was > 100 µM (inactive).

In the case of `O=S(=O)(Nc1nc2ccccc2nc1Nc1cccc2ccccc12)c1ccccc1`, the GI50 (786-0) is reported as 17 µM (inactive), the GI50 (K562) is reported as > 100 µM (inactive) and the GI50 (SK-OV-3) is reported as 19.9 µM (inactive). For the same compound, the GI50 (SF-268) was 26.5 µM (inactive), the GI50 (SF-295) was 6.17 µM (inactive) and the GI50 (UACC-62) was 8.59 µM (inactive). The GI50 (UACC-257) was 39.4 µM (inactive), the GI50 (T47D) was 5.26 µM (inactive) and the GI50 (Hs-578T) was 21.1 µM (inactive). For the same compound, the GI50 (CAKI-1) was 31.8 µM (inactive), the GI50 (MDA-MB-231) was 13.6 µM (inactive) and the GI50 (SF-539) was 44.9 µM (inactive). For the same compound, the GI50 (RPMI-8226) was 2.73 µM (inactive), the GI50 (UO-31) was 2.43 µM (inactive) and the GI50 (ACHN) was 8 µM (inactive). The GI50 (RXF 393) was 17.5 µM (inactive), the GI50 (HOP-92) was 2.7 µM (inactive) and the GI50 (MDA-MB-435) was > 100 µM (inactive).
